According to PubChem BioAssay AID1745844 (Carcinogenic Potency Database (CPDB), 2022):
Several values for one entry are separate records, joined by “and”; a condition that tells them apart may be missing. Identical values can stand only once. Activity calls are given as the source filed them. The rule behind the calls is not given here.

System: rodent lifetime carcinogenesis bioassay, tumor incidence TD50
Assay: carcinogenic potency in animals, long-term in vivo studies, CPDB compilation (AID 1745844)

C=C1C[C@@]23CC[C@H]4[C@@](C)(CCC[C@@]4(C)C(=O)O[C@@H]4O[C@H](CO)[C@@H](O)[C@H](O)[C@H]4O)[C@@H]2CC[C@]1(O[C@@H]1O[C@H](CO)[C@@H](O)[C@H](O)[C@H]1O[C@@H]1O[C@H](CO)[C@@H](O)[C@H](O)[C@H]1O)C3
TD50 (rat, strain F344/DuCrj, females, in feed, site: any site (literature study), lesion: several types, types named in the paper, dosed 104 weeks, study length 108 weeks): 34400 mg/kg/day (inactive)
carcinogen call (rat, strain F344/DuCrj, females, in feed, site: liver, lesion: one or several types, types not named, dosed 104 weeks, study length 108 weeks): negative (inactive)
carcinogen call (rat, strain F344/DuCrj, males, in feed, site: any site (literature study), lesion: several types, types named in the paper, dosed 104 weeks, study length 108 weeks): negative (inactive)
carcinogen call (rat, strain F344/DuCrj, males, in feed, site: liver, lesion: hepatocellular adenoma, dosed 104 weeks, study length 108 weeks): negative (inactive)
TD50 (rat, strain F344/DuCrj, males, in feed, site: liver, lesion: hepatocellular carcinoma, dosed 104 weeks, study length 108 weeks): 101000 mg/kg/day (inactive)

CCCl
TD50 (mouse, strain B6C3F1, females, inhaled, site: all sites, lesion: malignant lymphoma, histiocytic type + malignant lymphoma, mixed type + malignant lymphoma, lymphocytic type + malignant lymph, dosed 100 weeks, study length 100 weeks): 9960 mg/kg/day
TD50 (mouse, strain B6C3F1, females, inhaled, site: any site (literature study), lesion: several types, types named in the paper, dosed 100 weeks, study length 100 weeks): 1380 mg/kg/day
TD50 (mouse, strain B6C3F1, females, inhaled, site: liver, lesion: hepatocellular adenoma + hepatocellular carcinoma + neoplastic nodule, dosed 100 weeks, study length 100 weeks): 7220 mg/kg/day
TD50 (mouse, strain B6C3F1, females, inhaled, site: liver, lesion: hepatocellular adenoma + hepatocellular carcinoma, dosed 100 weeks, study length 100 weeks): 7220 mg/kg/day
TD50 (mouse, strain B6C3F1, females, inhaled, site: liver, lesion: hepatocellular carcinoma, dosed 100 weeks, study length 100 weeks): 7580 mg/kg/day
TD50 (mouse, strain B6C3F1, females, inhaled, site: lung, lesion: alveolar/bronchiolar adenoma + alveolar/bronchiolar carcinoma, dosed 100 weeks, study length 100 weeks): 8640 mg/kg/day
TD50 (mouse, strain B6C3F1, females, inhaled, site: uterus, lesion: carcinoma, dosed 100 weeks, study length 100 weeks): 1810 mg/kg/day
TD50 (mouse, strain B6C3F1, males, inhaled, site: any site (literature study), lesion: several types, types named in the paper, dosed 100 weeks, study length 100 weeks): 10100 mg/kg/day
TD50 (mouse, strain B6C3F1, males, inhaled, site: liver, lesion: hepatocellular adenoma + hepatocellular carcinoma + neoplastic nodule, dosed 100 weeks, study length 100 weeks): 34100 mg/kg/day
TD50 (mouse, strain B6C3F1, males, inhaled, site: lung, lesion: alveolar/bronchiolar adenoma + alveolar/bronchiolar carcinoma, dosed 100 weeks, study length 100 weeks): 9910 mg/kg/day
TD50 (mouse, strain B6C3F1, males, inhaled, site: lung, lesion: alveolar/bronchiolar adenoma, dosed 100 weeks, study length 100 weeks): 12700 mg/kg/day
TD50 (rat, strain Fischer 344, females, inhaled, site: any site (literature study), lesion: several types, types named in the paper, dosed 102 weeks, study length 105 weeks): 2660 mg/kg/day
TD50 (rat, strain Fischer 344, females, inhaled, site: brain, lesion: astrocytoma, malignant, dosed 102 weeks, study length 105 weeks): 21000 mg/kg/day
TD50 (rat, strain Fischer 344, females, inhaled, site: uterus, lesion: endometrial stromal polyp, dosed 102 weeks, study length 105 weeks): 10200 mg/kg/day
TD50 (rat, strain Fischer 344, males, inhaled, site: any site (literature study), lesion: several types, types named in the paper, dosed 102 weeks, study length 105 weeks): 1600 mg/kg/day
TD50 (rat, strain Fischer 344, males, inhaled, site: liver, lesion: hepatocellular adenoma + hepatocellular carcinoma + neoplastic nodule, dosed 102 weeks, study length 105 weeks): 47700 mg/kg/day
TD50 (rat, strain Fischer 344, males, inhaled, site: skin, lesion: basal-cell carcinoma + sebaceous adenoma + trichoepithelioma, dosed 102 weeks, study length 105 weeks): 3210 mg/kg/day
TD50 (rat, strain Fischer 344, males, inhaled, site: skin, lesion: basal-cell carcinoma, dosed 102 weeks, study length 105 weeks): 4970 mg/kg/day

Cc1c(C)c2c(c(C)c1O)CCC(C)(CCCC(C)CCCC(C)CCCC(C)C)O2 (centres undefined)
carcinogen call (rat, strain F344/DuCrj, females, in feed, site: colon, lesion: one or several types, types not named, dosed 54 weeks, study length 54 weeks): negative (inactive)
carcinogen call (rat, strain F344/DuCrj, females, in feed, site: mammary gland, lesion: one or several types, types not named, dosed 54 weeks, study length 54 weeks): negative (inactive)
carcinogen call (rat, strain F344/DuCrj, males, in feed, site: esophagus, lesion: one or several types, types not named, dosed 52 weeks, study length 52 weeks): negative (inactive)
carcinogen call (rat, strain F344/DuCrj, males, in feed, site: forestomach, lesion: one or several types, types not named, dosed 52 weeks, study length 52 weeks): negative (inactive)
carcinogen call (rat, strain F344/DuCrj, males, in feed, site: liver, lesion: one or several types, types not named, dosed 52 weeks, study length 52 weeks): negative (inactive)

CCCCCN(N=O)C(=N)N[N+](=O)[O-]
carcinogen call (rat, strain Wistar, males, in drinking water, site: stomach, glandular, lesion: one or several types, types not named, dosed 52 weeks, study length 78 weeks): negative (inactive)

Cc1cc(Cl)ccc1N
TD50 (mouse, strain B6C3F1, females, in feed, site: all sites, lesion: hemangioma + hemangiosarcoma, dosed 95 weeks, study length 99 weeks): 40 mg/kg/day
TD50 (mouse, strain B6C3F1, females, in feed, site: all sites, lesion: hemangiosarcoma, dosed 95 weeks, study length 99 weeks): 42.3 mg/kg/day
TD50 (mouse, strain B6C3F1, females, in feed, site: any site (literature study), lesion: several types, types named in the paper, dosed 95 weeks, study length 99 weeks): 38.8 mg/kg/day
TD50 (mouse, strain B6C3F1, females, in feed, site: liver, lesion: hepatocellular adenoma + hepatocellular carcinoma + neoplastic nodule, dosed 95 weeks, study length 99 weeks): 754 mg/kg/day
TD50 (mouse, strain B6C3F1, females, in feed, site: lung, lesion: alveolar/bronchiolar adenoma + alveolar/bronchiolar carcinoma, dosed 95 weeks, study length 99 weeks): 798 mg/kg/day
TD50 (mouse, strain B6C3F1, males, in feed, site: all sites, lesion: hemangioma + hemangiosarcoma, dosed 99 weeks, study length 99 weeks): 743 mg/kg/day
TD50 (mouse, strain B6C3F1, males, in feed, site: all sites, lesion: hemangiosarcoma, dosed 99 weeks, study length 99 weeks): 911 mg/kg/day
TD50 (mouse, strain B6C3F1, males, in feed, site: any site (literature study), lesion: several types, types named in the paper, dosed 99 weeks, study length 99 weeks): 537 mg/kg/day
TD50 (mouse, strain B6C3F1, males, in feed, site: liver, lesion: hepatocellular adenoma + hepatocellular carcinoma + neoplastic nodule, dosed 99 weeks, study length 99 weeks): 3260 mg/kg/day
TD50 (mouse, strain CD-1 HaM/ICR, females, in feed, site: all sites, lesion: all vascular tumors, dosed 51 weeks, study length 60 weeks): 15.7 mg/kg/day and 18.4 mg/kg/day
TD50 (mouse, strain CD-1 HaM/ICR, females, in feed, site: any site (literature study), lesion: several types, types named in the paper, dosed 51 weeks, study length 60 weeks): 15.6 mg/kg/day
TD50 (mouse, strain CD-1 HaM/ICR, females, in feed, site: liver, lesion: several types, types named in the paper, dosed 51 weeks, study length 60 weeks): 139 mg/kg/day (inactive)
TD50 (mouse, strain CD-1 HaM/ICR, females, in feed, site: lung, lesion: several types, types named in the paper, dosed 51 weeks, study length 60 weeks): 153 mg/kg/day (inactive)
TD50 (mouse, strain CD-1 HaM/ICR, males, in feed, site: all sites, lesion: all vascular tumors, dosed 55 weeks, study length 60 weeks): 15.4 mg/kg/day
TD50 (mouse, strain CD-1 HaM/ICR, males, in feed, site: any site (literature study), lesion: several types, types named in the paper, dosed 55 weeks, study length 60 weeks): 7.72 mg/kg/day
TD50 (mouse, strain CD-1 HaM/ICR, males, in feed, site: liver, lesion: several types, types named in the paper, dosed 55 weeks, study length 60 weeks): 95.7 mg/kg/day (inactive)
TD50 (mouse, strain CD-1 HaM/ICR, males, in feed, site: lung, lesion: several types, types named in the paper, dosed 55 weeks, study length 60 weeks): 8.85 mg/kg/day (inactive)
TD50 (rat, strain Charles River CD (Sprague-Dawley), males, in feed, site: any site (literature study), lesion: several types, types named in the paper, dosed 77 weeks, study length 98 weeks): 24.9 mg/kg/day (inactive)
TD50 (rat, strain Charles River CD (Sprague-Dawley), males, in feed, site: liver, lesion: several types, types named in the paper, dosed 77 weeks, study length 98 weeks): 123 mg/kg/day (inactive)
carcinogen call (rat, strain Fischer 344, females, in feed, site: any site (literature study), lesion: several types, types named in the paper, dosed 107 weeks, study length 107 weeks): negative (inactive)
TD50 (rat, strain Fischer 344, males, in feed, site: liver, lesion: hepatocellular adenoma + hepatocellular carcinoma + neoplastic nodule, dosed 107 weeks, study length 107 weeks): 6180 mg/kg/day
TD50 (rat, strain Fischer 344, males, in feed, site: pituitary gland, lesion: chromophobe adenoma, dosed 107 weeks, study length 107 weeks): 576 mg/kg/day (inactive)

CO[C@H]1[C@@H](O)[C@@H](CO)OC(OC2C3CO[C@H]2[C@H](O)C(C)O3)[C@@H]1O (some centres undefined)
carcinogen call (mouse, strain B6C3F1, females, in feed, site: any site (literature study), lesion: several types, types named in the paper, dosed 103 weeks, study length 105 weeks): negative (inactive)
TD50 (mouse, strain B6C3F1, males, in feed, site: any site (literature study), lesion: several types, types named in the paper, dosed 103 weeks, study length 105 weeks): 54900 mg/kg/day
TD50 (mouse, strain B6C3F1, males, in feed, site: liver, lesion: hepatocellular adenoma + hepatocellular carcinoma + neoplastic nodule, dosed 103 weeks, study length 105 weeks): 33100 mg/kg/day
TD50 (mouse, strain B6C3F1, males, in feed, site: liver, lesion: hepatocellular adenoma, dosed 103 weeks, study length 105 weeks): 18800 mg/kg/day (inactive)
TD50 (mouse, strain B6C3F1, males, in feed, site: lung, lesion: alveolar/bronchiolar adenoma + alveolar/bronchiolar carcinoma, dosed 103 weeks, study length 105 weeks): 102000 mg/kg/day
TD50 (rat, strain Fischer 344, females, in feed, site: adrenal gland, lesion: cortical adenoma, dosed 103 weeks, study length 105 weeks): 25800 mg/kg/day (inactive)
TD50 (rat, strain Fischer 344, males, in feed, site: any site (literature study), lesion: several types, types named in the paper, dosed 103 weeks, study length 105 weeks): 39300 mg/kg/day (inactive)
TD50 (rat, strain Fischer 344, males, in feed, site: liver, lesion: hepatocellular adenoma + hepatocellular carcinoma + neoplastic nodule, dosed 103 weeks, study length 105 weeks): 25900 mg/kg/day
